# In patent US11446270B2, “Leonurine crystal and use thereof in preparation of insulin sensitizer, hypoglycemic drug and lipid-lowering drug” (ZHUHAI HENGQIN NEW DISTRICT ZHONGZHU ZHENGTAI MEDICAL …, priority 2017, dated 2022):
# Tested on: New Zealand rabbits
# Assay: Carotid atherosclerotic plaque intima-media thickness (IMT) by high-frequency ultrasound in rabbit atherosclerosis model
# Format: in vivo
# Details: for intimal-medial thickness (IMT) at the largest carotid plaque: high fat diet 8 weeks, vs model group
# Method: Forty-two male New Zealand rabbits weighed 2.0 to 2.5 kg were fed with normal diet to adapt to the housing environment for one week before experiment, and then the rabbits were fed with high fat diet (1% cholesterol; SF00-221 SpecialtyFeed Australia) for 8 weeks to establish the rabbit model of atherosclerosis. […] When the rabbits were started to give high fat diet, various drugs or vehicle (NC and MD groups) were simultaneously administered. The drug was administered once a day continuously for 8 weeks and weighed once a week to adjust the dose of drugs. Rabbits were caged in an air-conditioned room (24±1° C. room temperature and 55±5% air humidity) with 12 h light per day and had free access to water and were fed ad libitum. High-frequency ultrasound detection of carotid plaque: the high-frequency microscopy imaging system (Vevo770) was used to detect carotid atherosclerotic plaque at the end of the 8th week of the experiment. The rabbits were anesthetized with 3% pentobarbital sodium in the dose of 30 mg/kg. Using the RMV707B probe (resolution 30 MHz) to observe the carotid bifurcation plaque and measure the blood flow velocity on the carotid artery long axis section by two-dimensional ultrasound. Then adjust direction of the probe so that the angle between the probe and the carotid artery is less than 60° to obtain the long-axis view. The intima-media thickness (IMT) is measured at the maximum end-diastolic plaque. The measurement to detected IMT is taking the vertical distance between the lumen-intimal echo to the medial-outer membrane echo, and detecting the atherosclerotic plaque on the right common carotid artery bifurcation proximal. The carotid ultrasound images and the maximum IMT at the plaque were analyzed, and the morphology of atherosclerotic plaques was evaluated. The data were analyzed by Vevo770 microscopy imaging system software. All measurements were repeated twice in the same area and averaged.
structure (smiles),measurement,setting,value
"COc1cc(C(=O)OCCCCNC(=N)N)cc(OC)c1O [crystal form A, 4-guanidino-1-butyl 4-hydroxy-3,5-dimethoxybenzoate]",carotid plaque thickness / IMT growth induced by high fat,"high fat diet 8 weeks, 4, 8, 16 mg/kg/day, dose-dependent effect",significantly inhibited IMT growth
same,intimal-medial thickness (IMT) at the largest carotid plaque,high dose group 16 mg/kg/d,decrease plaque thickness
same,intimal-medial thickness (IMT) at the largest carotid plaque,medium dose group 8 mg/kg/d,decrease plaque thickness
